Values quoted from earlier work in patent publication US6583280B1, “Polyamine analogues having antiproliferative activity” (priority 2000, dated 2003).
Where two headings read alike, the source gives them in different places. Blank lines part the entries; values can stand above or below the compound they belong to.

Assays:
recombinant NMDA = recombinant NMDA receptors
NMDA receptor = settings: for IC50: MK-801 binding
[1] = system: human small cell lung carcinoma line (SCLC)
[2] = molecular target: polyamine transport system
[3] = system: L1210 murine leukemia cells
[4] = system: human large cell carcinoma (LCLC); settings: 10 μM
SSAT [5] = system: SSAT
SSAT [6] = molecular target: T1, SSAT (Homo sapiens, UniProt P21673); settings: multisubstrate inhibitor of SSAT
T1 sequence (P21673 whole entry, species assumed): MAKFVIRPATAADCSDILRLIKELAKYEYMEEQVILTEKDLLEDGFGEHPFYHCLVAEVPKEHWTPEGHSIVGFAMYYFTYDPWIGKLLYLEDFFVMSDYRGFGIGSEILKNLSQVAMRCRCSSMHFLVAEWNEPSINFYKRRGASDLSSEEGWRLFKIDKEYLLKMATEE

SSAT [7] = molecular target: T1, SSAT; settings: due to lack of uptake
ODC = molecular target: T2, ODC (Homo sapiens, UniProt P11926)
T2 sequence (P11926 1-461): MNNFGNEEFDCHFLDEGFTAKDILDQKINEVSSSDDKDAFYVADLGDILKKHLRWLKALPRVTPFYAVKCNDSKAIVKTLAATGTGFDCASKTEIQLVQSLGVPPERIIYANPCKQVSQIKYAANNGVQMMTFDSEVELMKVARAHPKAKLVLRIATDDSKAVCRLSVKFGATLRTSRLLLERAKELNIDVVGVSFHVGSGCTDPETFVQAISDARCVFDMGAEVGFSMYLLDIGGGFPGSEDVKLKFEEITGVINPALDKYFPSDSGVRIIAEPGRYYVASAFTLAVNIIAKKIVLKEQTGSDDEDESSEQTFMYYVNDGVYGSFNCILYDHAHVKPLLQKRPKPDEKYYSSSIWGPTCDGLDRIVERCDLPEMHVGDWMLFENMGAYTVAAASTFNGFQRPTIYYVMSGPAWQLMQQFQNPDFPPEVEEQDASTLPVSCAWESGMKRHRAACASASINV

[8] = human, in vivo
[9] = physiological pH
[10] = animal study
[11] = in vitro toxicity
[12] = system: two human pancreatic ductal adenocarcinoma cell lines
[13] = system: Trypanosoma brucei brucei
AdoMetDC = molecular target: T3, AdoMetDC (Homo sapiens, UniProt P17707); settings: inhibitor of AdoMetDC
T3 sequence (P17707 68-334 limits assumed): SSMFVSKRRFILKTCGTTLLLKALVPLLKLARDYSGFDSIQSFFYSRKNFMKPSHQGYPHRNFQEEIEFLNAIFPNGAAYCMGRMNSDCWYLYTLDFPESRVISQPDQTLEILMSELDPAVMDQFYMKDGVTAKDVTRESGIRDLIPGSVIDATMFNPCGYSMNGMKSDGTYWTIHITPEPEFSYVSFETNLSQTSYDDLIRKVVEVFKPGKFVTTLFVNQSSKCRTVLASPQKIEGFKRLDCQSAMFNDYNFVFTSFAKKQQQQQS
T3 sequence (P17707 1-67 limits assumed): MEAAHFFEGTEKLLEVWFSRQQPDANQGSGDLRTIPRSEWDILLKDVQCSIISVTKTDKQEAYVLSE

spermine synthase = molecular target: T4, spermine synthase (Homo sapiens, UniProt P52788); settings: multisubstrate adduct inhibitor, in vitro
T4 sequence (P52788 1-366): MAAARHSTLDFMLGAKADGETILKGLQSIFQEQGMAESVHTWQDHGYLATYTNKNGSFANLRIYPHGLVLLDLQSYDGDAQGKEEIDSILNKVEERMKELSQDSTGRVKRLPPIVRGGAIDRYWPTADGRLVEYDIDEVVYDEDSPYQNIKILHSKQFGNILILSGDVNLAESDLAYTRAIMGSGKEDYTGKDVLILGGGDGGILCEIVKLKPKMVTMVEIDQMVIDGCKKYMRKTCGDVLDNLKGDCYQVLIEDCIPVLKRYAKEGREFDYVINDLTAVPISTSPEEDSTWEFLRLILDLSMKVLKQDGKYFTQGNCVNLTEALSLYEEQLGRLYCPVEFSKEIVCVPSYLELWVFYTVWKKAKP

[14] = liver and kidney
[15] = read-out: Ki value for the polyamine transport system
[16] = L1210 murine leukemia cells, read-out: IC50
[17] = target not printed, read-out: Ki
[18] = 96th, read-out: 96th IC50 toward L1210 cell growth

Compound: c1ccc(CNCCCCN(CCCNCc2ccccc2)Cc2ccccc2)cc1 [TB-3-4]
IC50 (recombinant NMDA): 0.2 µM

Compound: CCNCCCNCCCCNCCCNCC [DESpm, N′,N″-bis-ethylspermine]
induction of SSAT or cytotoxic effect [1]: no significant induction of SSAT or cytotoxic effect
Ki [2, 15]: 1.6 µM
effect on polyamine pools (polyamine pools): deplete all three polyamine pools
IC50 [3, 16]: 0.18 µM
cytotoxicity [4]: cytotoxic
induction of SSAT ([4]; time- and dose-dependent): above 1700 fold
SSAT up-regulation / stimulation (SSAT [5]): 4.6 fold

Compound: CC(C)(COP(=O)(O)OP(=O)(O)OC[C@H]1O[C@@H](n2cnc3c(N)ncnc32)[C@H](O)[C@@H]1OP(=O)(O)O)[C@@H](O)C(=O)NCCC(=O)NCCSCC(=O)NCCCNCCCN [CNSA, N-[1-(S-coenzyme A)acetyl]-syn-norspermidine amide]
IC50 (SSAT [6]): 0.3 µM
activity in intact cells (SSAT [7]): devoid of activity in intact cells

Compound: C(CNC1CCNCC1)CNC1CCNCC1 [PIP (3,3,3)]
fraction in the 3+ catonic state [9]: 63.2%
increase of MK-801 level (NMDA receptor; agonist): 100%

Compound: NCCCCNCCCN [spermidine]
nephrotoxicity relative to spermine [10]: approximately one-twentieth

Compound: NCCCCN(CCCN)Cc1ccc(B(O)O)cc1 [BBSPD-5]
IC50 [11]: 5000 µM

Compound: CN(CC=CCN)CC1OC(n2cnc3c(N)ncnc32)C(O)C1O (stereo not drawn) [AbeAdo, 5′-{[(Z)-4-anino-2-butenyl]methylamino}-5′-deoxyadenosin]
potency relative to DFMO ([13]; Trypanosoma brucei brucei): at least 100 times
effect on infection ([13]; Trypanosoma brucei brucei and multi-drug-resistant Trypanosoma brucei rhodesiense infections in mice): cures
Ki (AdoMetDC): 0.3 µM

Compound: S-(-5′-deoxy-5′-adenosyl)-1,12-diamino-3-thio-9-azadodecane [AdoDATAD]
IC50 (spermine synthase): 20 µM

Compound: NCCC[C@](N)(C(=O)O)C(F)F [DFMO, α-difluoromethylornithine]
Ki (ODC; irreversible inhibitor of ODC): 40 µM
effect on polyamine pools (polyamine pools): depletes putricine and spermidine pools, but has little effect on Spermine pools

Now from value to compound, other results behind:

agonist concentration at NMDA receptor (NMDA receptor): ≥ 10 µM
IC50 (NMDA receptor): 80 µM
Compound: NCCCCNCCCCNCCCCN [homospermine]

Ki (ODC; putrescine analogue, target not given): 3 µM
Compound: C#C[C@H](N)CC[C@@H](C)N [RR-MAP, (2R,5R)-6-heptyne-2,5-diamine]
toxicity in clinical trials [8]: myclosuppression and renal toxicity

IC50 (NMDA receptor): 8 µM
Compound: c1cc(NCCCCNc2ccncc2)ccn1 [PYR (3,4,3)]

Ki [2, 15]: 17 µM
IC50 [3, 16]: 1.3 µM
Compound: CCNCCCNCCCNCCCNCC [DENSpm, N′,N″-bis ethylnorspermine]
effect on polyamine pools (polyamine pools): deplete all three polyamine pools
antiproliferative activity [12]: great antiproliferative activity
SSAT up-regulation / stimulation (SSAT [5]): 15 fold

accumulation of drug and metabolites [14]: not observed
Ki [2, 17]: 1.8 µM
IC50 [3, 18]: 0.05 µM
Compound: CCNCC[C@@H](O)CNCCCCNC[C@H](O)CCNCC [(HO)2DEHPM]

Ki [2, 17]: 1.4 µM
IC50 [3, 18]: 0.05 µM
Compound: CCNCCCCNCCCCNCCCCNCC [DEHSPM]
accumulation of drug and metabolites [14]: accumulate to toxic levels in the liver and kidney
